Our source for the EC50, IC50 and outcome values is PubChem BioAssay AID179 (DTP/NCI, 2004).

The assay concerns CEM cells HIV-1 protection, formazan growth assay. Nature of the assay: NCI AIDS Antiviral Assay. Conditions: for IC50: measured here: growth of uninfected CEM cells. The procedure, abridged:
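Steps: treat uninfected and HIV-1-infected human CEM cells at five drug levels; quantify growth by soluble formazan; retest any compound reaching 50% protection; classify actives from the retest.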

The source made the active and inactive calls.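 How the source made its calls: active means compounds giving half or more protection of infected cells from virus-caused growth loss, again on retest; inactive means the rest.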

What is called EC50 is the concentration needed to bring the measured effect to its halfway point. One may read the IC50 as the concentration needed to halve the response being measured. As to `CC(C)C1CN(C(=O)OCc2ccccc2)C2N1C(=O)C2(C)OCc1ccccc1` (stereo unspecified), the EC50 was greater than 251 µM and the IC50 was 97.7 µM. In the same order, the values of `O=C1CN(CCCO)CC(=O)N2Cc3ccccc3CN12` are greater than 200 µM and greater than 200 µM. In the same order, the values of `[O-]c1on[n+]2c1c(Nc1ccc(Cl)cc1)nc1ccccc12` are greater than 115 µM and greater than 115 µM. In the same order, the values of `O=C1CC2(Cl)CN3c4ccccc4C(=O)CC3(Cl)CN2c2ccccc21` (stereo unspecified) are greater than 57.5 µM and greater than 57.5 µM. Take `O=C(/C=C/c1ccccc1)CCC1C(=O)NC(=O)NC1=O`: the EC50 was greater than 66.1 µM and the IC50 was greater than 66.1 µM. On to `COc1ccc2nc3cc(Cl)ccc3c(NC(C)CCCN(C)C)c2n1` (stereo unspecified), for which the EC50 was greater than 2 µM and the IC50 stood at 1.02 µM. The corresponding values for `c1ccc(P2CCc3[nH]c4ccccc4c3C2)cc1` (stereo unspecified) are greater than 38 µM and greater than 38 µM. In the same order, the values of `CCCCC(=O)c1c(O)nc2sccn2c1=O` are greater than 200 µM and 155 µM.

Consider `COC(=O)NC[C@@H]1OCc2cc3c(cc2[C@]12C=CCCC2)OCO3`, for which the EC50 was greater than 107 µM and the IC50 stood at 2.63 µM.

In the case of `C[C@]12CC[C@@H]3c4cc(I)c(O)cc4CC[C@H]3[C@@H]1CC[C@@H]2O`, the EC50 is greater than 200 µM and the IC50 was 2.09 µM. In the same order, the values of `CCOC(=O)C1=CN=C2C(=O)N(c3ccccc3)N(C)C2(C)C1=N` (stereo unspecified) are greater than 200 µM and greater than 200 µM. The corresponding values for `Brc1ccc2c(c1)[C@H]1CCc3c([nH]c4ccccc34)[C@H]1N2` are greater than 200 µM and 25.7 µM. In the same order, the values of `COc1cccc(NC(=O)c2c(SC)c(C#N)c(=O)n(N)c2N)c1` are greater than 200 µM and 107 µM.

For the compound `CN(C)c1ccc(C(C#N)NNC(=O)Cc2ccccc2)cc1` (stereo unspecified), the EC50 is greater than 85.1 µM and the IC50 was greater than 85.1 µM. In the case of `Cc1ccc(NC2=N/C(=C/c3ccccc3)C(Cl)=N2)cc1`, the EC50 was greater than 100 µM and the IC50 was greater than 100 µM. For the compound `CC(C)c1cccc(C(C)C)c1NC1=CC(=O)C(=O)c2ccccc21`, the EC50 was greater than 30.2 µM and the IC50 is greater than 30.2 µM. Turning to `O=S(=O)(c1ccc(O)cc1)c1ccc(O)cc1`, the EC50 was greater than 200 µM and the IC50 stood at 158 µM. In the same order, the values of `O=C1C(C(c2ccc([N+](=O)[O-])cc2)N2CCOCC2)=C(O)C(c2ccccc2)N1c1ccccc1` (stereo unspecified) are greater than 100 µM and 24.5 µM. In the same order, the values of `CC1=CC2c3c(O)cc(-c4cc5ccc(O)cc5o4)cc3OC3(c4ccc(O)c5c4OC(C)(C)C=C5)Oc4cc(O)ccc4[C@H](C1)C23` (stereo partly specified) are greater than 20.9 µM and 3.72 µM. On to `CCC[CH2][Ge]([CH2]CCC)([CH2]CCC)[O]C(=O)C(O)c1ccccc1` (stereo unspecified), for which the EC50 is 4.9 µM and the concentration for half-maximal inhibition (IC50) is 12 µM. For the compound `O=c1oc2ccccc2c(O)c1[N+](=O)[O-]`, the EC50 was greater than 200 µM and the IC50 is greater than 200 µM.

For `Cn1c([C@H](C#N)c2ncccc2[N+](=O)[O-])nc2ccccc21`, the EC50 is greater than 200 µM and the half-maximal inhibitory concentration (IC50) was 110 µM. The corresponding values for `O=C(c1ccccc1)c1ccc(OCCOc2ccc(Nc3ccccc3)cc2)cc1` are greater than 6.61 µM and greater than 6.61 µM. In the same order, the values of `Cc1ccc(C)c(COCCOCn2cc(Br)c(N)nc2=O)c1` are greater than 200 µM and greater than 200 µM. In the same order, the values of `CCOC(=O)C(CCC(N)=O)(CCC(=O)OC)C(=O)OCC` are greater than 200 µM and greater than 200 µM. In the case of `C=CCn1c(=O)c(C(=O)Nc2nc(C34CC5CC(CC(C5)C3)C4)cs2)c(O)c2ccccc21`, the EC50 is greater than 200 µM and the IC50 is 77.6 µM. For the compound `CN1CCCC(C(=O)O)(c2ccccc2)CC1` (stereo unspecified), the result was inactive. On to `CC1CCN(CCC(=O)CC(c2ccccc2)c2c(O)c3ccccc3oc2=O)CC1` (stereo unspecified), for which the EC50 was greater than 97.7 µM and the IC50 was determined as 57.5 µM. The corresponding values for `O=C(Nn1c(-c2ccccc2)nc2ccccc2c1=O)c1ccc(O)cc1` are greater than 200 µM and greater than 200 µM. In the same order, the values of `Cc1ccc(C)c2sc3cc(=O)ccc-3nc12` are greater than 107 µM and greater than 107 µM. The corresponding values for `Cc1cc(C)c(C#N)c(SSC(Cl)(Cl)Cl)n1` are greater than 200 µM and 32.4 µM. For `O=C1c2ccc3cc(CCl)cc(O)c3c2C(=O)c2cccc(O)c21`, the EC50 is greater than 200 µM and the IC50 is 5.25 µM. In the same order, the values of `O=C(O)[C@@H]1CSC(c2ccc(Cl)cc2)N1` (stereo partly specified) are greater than 200 µM and greater than 200 µM. As to `[N-]=[N+]=Nc1ccc(SSCCC(=O)ON2C(=O)CCC2=O)cc1`, the EC50 is greater than 200 µM and the IC50 is 7.59 µM. In the same order, the values of `O=c1[nH]n(Cc2ccccc2CCl)c2ccc([N+](=O)[O-])cc12` are greater than 200 µM and 38 µM. In the same order, the values of `Cc1ccc(-n2cc(-c3ccc(Cl)cc3)c3c2N=CN2NC(c4cccs4)=NC32)cc1` (stereo unspecified) are greater than 100 µM and 42.7 µM. Turning to `N=C(N)c1ccc(C(NC(=O)CNS(=O)(=O)c2ccc3ccccc3c2)P(=O)(Oc2ccccc2)Oc2ccccc2)cc1` (stereo unspecified), the EC50 was 0.741 µM and the half-maximal inhibitory concentration (IC50) amounted to 7.08 µM. On to `O=C1COc2ccc(F)cc2N1`, for which the EC50 was greater than 380 µM and the IC50 was greater than 380 µM. Turning to `CSC1=N/C(=C\c2ccc(Cl)cc2)C(=O)N1CN1CCOCC1`, the EC50 was greater than 200 µM and the IC50 is 33.1 µM. The corresponding values for `O=C1N=NC(=O)c2ccccc21` are greater than 200 µM and greater than 200 µM.

With `COC1OC(CCC2NC(CO)C(O)C(O)C2O)C(O)C(O)C1O` (stereo unspecified), the EC50 is greater than 200 µM and the IC50 was greater than 200 µM. For the compound `O=C(O)C[C@@H]1C(=O)OC2C(COC(=O)c3cc(O)c(O)c(O)c3)OC(OC(=O)c3cc(O)c(O)c(O)c3)C(OC(=O)c3cc(O)c(O)c4c3C1[C@H](O)C(=O)O4)C2OC(=O)c1cc(O)c(O)c(O)c1` (stereo partly specified), the EC50 was 1.48 µM and the IC50 came to 12.9 µM. In the same order, the values of `CC(=O)NC(CC(C)C)C(=O)NC(Cc1ccccc1)C(=S)N1CCCC1` (stereo unspecified) are greater than 174 µM and greater than 174 µM. In the same order, the values of `CCOP(=O)(CCCC(O)CNc1cc(Cl)nc(N)n1)OCC` (stereo unspecified) are greater than 200 µM and greater than 200 µM.

With `COc1ccc2nc3cc(Cl)ccc3c(SCC(=O)Nc3ccccc3-c3ccccc3NC(=O)CSc3c4ccc(Cl)cc4nc4ccc(OC)cc34)c2c1`, the EC50 was greater than 8.91 µM and the IC50 is greater than 8.91 µM. On to `CCOc1ccc(N=Cc2ccc3ccccc3n2)cc1`, for which the result was inactive. On to `COc1ccc(-c2nnc3n(Cc4ccccc4)c4ccccc4n3c2=O)cc1`, for which the EC50 was greater than 200 µM and the IC50 was greater than 200 µM. As to `CCOC(=O)C(O)(NC(=O)NC(O)(C(=O)OCC)C(F)(F)F)C(F)(F)F` (stereo unspecified), the EC50 is greater than 200 µM and the IC50 is greater than 200 µM. `CCOP(=O)(OCC)/C(C#N)=C/c1cc(OC)ccc1OC`: the EC50 is greater than 398 µM and the IC50 worked out at 24 µM. In the same order, the values of `CC(=O)Oc1cc(C)c(Cl)c2c(OC(C)=O)cc(C(C)=O)c(O)c12` are greater than 200 µM and 49 µM. On to `[O-]c1on[n+]2c1CSC2`, for which the EC50 is greater than 1740 µM and the IC50 was greater than 1740 µM. For the compound `O=C(O)/C=C/c1ccc(O)c(O)c1`, the EC50 is greater than 1380 µM and the IC50 worked out at 66.1 µM.

With `Cc1cc2nnc(C(N)=O)c(N)c2cc1C`, the EC50 is greater than 200 µM and the IC50 was greater than 200 µM. Take `N#Cc1c(Cl)c2cc([N+](=O)[O-])ccc2n2c1nc1ccccc12`: the EC50 was greater than 20 µM and the half-maximal inhibitory concentration (IC50) turned out to be 0.813 µM. The corresponding values for `c1scc2c1COCCOCCOCCOCCOCCOCCOC2` are greater than 646 µM and greater than 646 µM. In the same order, the values of `Nc1nc(NC2C3CC4CC(C3)CC2C4)nc(-c2n[nH]c(=S)o2)n1` (stereo unspecified) are greater than 55 µM and 28.2 µM.

Regarding `COc1ccc(C2OC2C(=O)C23CC4CC(CC(C4)C2)C3)cc1` (stereo unspecified), the EC50 is greater than 200 µM and the IC50 was 52.5 µM. On to `C=C1C(=O)OC2C1C(OC(=O)/C(=C/C)COC(C)=O)CC1(CO1)C1C(OC(=O)/C(=C/C)CO)C=C(C)C21` (stereo unspecified), for which the result was inactive. For the compound `O=[N+]([O-])C[C@@]12O[C@]3(O)C4C5CC(C6C5C3C61)C42` (stereo partly specified), the EC50 is greater than 200 µM and the IC50 is greater than 200 µM. For `NC(=S)N/N=C(\C(=O)Nc1cccc([N+](=O)[O-])c1)c1nc2ccc([N+](=O)[O-])cc2[nH]c1=O`, the EC50 was greater than 288 µM and the IC50 turned out to be 95.5 µM. In the same order, the values of `C/C=C/C(CC(O)(C(F)(F)F)C(F)(F)F)=N/NC(N)=S` are greater than 200 µM and greater than 200 µM. For the compound `Cc1cc(Br)ccc1N=Nc1c(C)noc1-c1ccccc1`, the result was inactive.

For `COc1cccc(/C=N/[N+](C)(C)C)c1O`, the EC50 was greater than 200 µM and the IC50 is greater than 200 µM. With `N#Cc1c2nc3ccccc3nc2n2ccccc12`, the EC50 is greater than 40.7 µM and the IC50 is greater than 40.7 µM.

Take `CC[P+](CC)(c1ccccc1)c1ccccc1`: the EC50 was greater than 676 µM and the IC50 was 95.5 µM. The corresponding values for `O=C(CN1CCOCC1)c1ccc2[nH]c(=O)oc2c1` are greater than 200 µM and 155 µM. In the same order, the values of `Nc1ccccc1-c1ccn[nH]1` are greater than 200 µM and greater than 200 µM.

Consider `O=C(O)c1ccccc1C(=O)c1ccccc1`, for which the concentration for a half-maximal effect (EC50) was greater than 200 µM and the IC50 is greater than 200 µM. Take `CCCCCCOC(=O)c1[nH]c(=O)n(CCCCCC)c(=O)c1NC(=O)CNc1ccc2c(=O)c3ccccc3[nH]c2c1`: the EC50 is greater than 200 µM and the IC50 is 1 µM. The corresponding values for `COC1(OC)C=CC2C1C1C=CC2C1(OC)OC` (stereo unspecified) are greater than 200 µM and greater than 200 µM. In the same order, the values of `COC(=O)/C=C(C)/C=C/c1c(C)c(C(C)=O)c(C)n1C` are greater than 129 µM and greater than 129 µM. `O=c1ccn([C@@H]2C[C@@H]2CO)c(=O)[nH]1`: the outcome was inactive. In the case of `COc1cnnc2ccccc12`, the EC50 was greater than 676 µM and the IC50 turned out to be 603 µM.
